Like-named read-outs stand apart in the source and are kept apart here.
Assays:
[1] = system: antibodies in serum of cattle infected with M. avium paratuberculosis (MAP); format: binding; conditions: serum 1:20, IgG Fc secondary antibody, average of four replicates
[2] = system: antibodies in serum of cattle infected with bovine M. tuberculosis (B tb); experiment: ELISA assay of antibody binding to antigen, serum of cattle naturally infected with bovine TB
Description: The binding of antibodies in serum of cattle infected with M. tuberculosis or M. avium with the antigens detailed in example 3 was measured in an ELISA assay.
ELISA assays were carried out as known to those practiced in the art using 96 well plates. In the first procedure, the ELISA assay was carried out on 96-well microplates and the purified antigens were dissolved in n-hexane at a concentration of 62.5 μg/ml. The antigen solutions were diluted and 50 μl and placed in each well. The plates were left to dry at room temperature overnight. Blocking was done with 0.5% casein/PBS (400 μl/well) and the plates are left to incubate at 25° C. for 1 h. The casein was aspirated using the LT-3500 plate washer and the plates flicked dry. Then the serum (1:20 dilution in 0.5% casein/PBS, pH 7.4) was added to the plate (50 μl/well) and left to incubate at 25° C. for 1 h. The serum was aspirated and washed three times with (casein/PBS, 400 μl/well) using the same plate washer and the plates were flicked dry again. After that, the secondary antibody, in the example given IgG Fc (1:1000 dilution in 0.5% casein/PBS) was added to the plate (50 μl/well) and the plates were left to incubate at 25° C. for 30 min. The plates were washed three times again with (casein/PBS, 400 μl/well) and dried. Then, the OPD substrate was added to the plates, which were left to incubate at 25° C. for 30 min. Finally, 2.5 M H2SO4 (50 μl/well) was added and the absorbances of each well were read at 492, 450 and 630 nm using an LT-4000 plate reader.
Serum used in this work was obtained from cattle infected with MAP, diagnosed as naturally infected with bovine TB, or known not to be infected using standard assays.
All measurements were taken as four replicates unless otherwise stated. These were averaged to provide the data in the table which are optical density measurements at 492 nm.

[3] = system: antibodies in serum of cattle known not to be infected; format: binding
[4] = serum MAP (experimentally infected)
[5] = VLA (Naturally infected) bovis serum sample 1
[6] = VLA (Naturally infected) bovis serum sample 2
[7] = VLA (Naturally infected) bovis serum sample 3
[8] = VLA (Naturally infected) bovis serum sample 4
[9] = VLA (Naturally infected) bovis serum sample 5
[10] = VLA (Naturally infected) bovis serum sample 6
[11] = VLA (Naturally infected) bovis serum sample 7
[12] = VLA (Naturally infected) bovis serum sample 8
[13] = VLA (Naturally infected) bovis serum sample 9
[14] = VLA (Naturally infected) bovis serum sample 10
[15] = VLA (Naturally infected) bovis serum sample 11
[16] = VLA (Naturally infected) bovis serum sample 12
[17] = VLA (Naturally infected) bovis serum sample 13
[18] = VLA (Naturally infected) bovis serum sample 14
[19] = VLA (Naturally infected) bovis serum sample 15
[20] = VLA (Naturally infected) bovis serum sample 16
[21] = VLA (Naturally infected) bovis serum sample 17
[22] = VLA (Naturally infected) bovis serum sample 18
[23] = VLA (Naturally infected) bovis serum sample 19
[24] = VLA (Naturally infected) bovis serum sample 20
[25] = VLA (Non-vaccinates) serum sample 21
[26] = VLA (Non-vaccinates) serum sample 22
[27] = VLA (Non-vaccinates) serum sample 23
[28] = VLA (Non-vaccinates) serum sample 24
[29] = VLA (Non-vaccinates) serum sample 25
[30] = VLA (Non-vaccinates) serum sample 26
[31] = VLA (Non-vaccinates) serum sample 27
[32] = VLA (Non-vaccinates) serum sample 28
[33] = VLA (Non-vaccinates) serum sample 29
[34] = VLA (Non-vaccinates) serum sample 30
[35] = VLA (Non-vaccinates) serum sample 31
[36] = VLA (Non-vaccinates) serum sample 32
[37] = VLA (Non-vaccinates) serum sample 33
[38] = VLA (Non-vaccinates) serum sample 34
[39] = VLA (Non-vaccinates) serum sample 35
[40] = VLA (Non-vaccinates) serum sample 36

| Structure (SMILES) | optical density measurements at 492 nm ([1]; serum MAP (Naturally infected)) | optical density measurements at 492 nm [1, 4] | optical density measurements at 492 nm [2, 5] | optical density measurements at 492 nm [2, 6] | optical density measurements at 492 nm [2, 7] | optical density measurements at 492 nm [2, 8] | optical density measurements at 492 nm [2, 9] | optical density measurements at 492 nm [2, 10] | optical density measurements at 492 nm [2, 11] | optical density measurements at 492 nm [2, 12] | optical density measurements at 492 nm [2, 13] | optical density measurements at 492 nm [2, 14] | optical density measurements at 492 nm [2, 15] | optical density measurements at 492 nm [2, 16] | optical density measurements at 492 nm [2, 17] | optical density measurements at 492 nm [2, 18] | optical density measurements at 492 nm [2, 19] | optical density measurements at 492 nm [2, 20] | optical density measurements at 492 nm [2, 21] | optical density measurements at 492 nm [2, 22] | other results |
| --- | --- | --- | --- | --- | --- | --- | --- | --- | --- | --- | --- | --- | --- | --- | --- | --- | --- | --- | --- | --- | --- |
| CCCCCCCCCCCCCCCCCCCCCC[C@@H](C(=O)OCC1OC(OC2OC(COC(=O)[C@H](CCCCCCCCCCCCCCCCCCCCCC)[C@H](O)CCCCCCCCCCCCCCCC[C@H]3C[C@@H]3[C@@H](C)CCCCCCCCCCCCCCCCCCC(=O)O[C@@H](C)CCCCCCCCCCCCCCCCCC)C(O)C(O)C2O)C(O)C(O)C1O)[C@H](O)CCCCCCCCCCCCCCCC[C@H]1C[C@@H]1[C@@H](C)CCCCCCCCCCCCCCCCCCC(=O)O[C@@H](C)CCCCCCCCCCCCCCCCCC (stereo partly shown) [Antigen F] | 4.00 | 1.44 | 1.07 | 0.67 | 2.47 | 0.67 | 0.29 | 0.18 | 0.51 | 2.23 | 0.18 | 0.24 | 0.31 | 1.08 | 0.66 | 0.23 | 0.12 | 0.62 | 0.47 | 0.52 | optical density measurements at 492 nm [2, 23]: 0.69; optical density measurements at 492 nm [2, 24]: 1.08; optical density measurements at 492 nm [3, 25]: 0.25; optical density measurements at 492 nm [3, 26]: 0.25; optical density measurements at 492 nm [3, 27]: 0.17; optical density measurements at 492 nm [3, 28]: 0.21; optical density measurements at 492 nm [3, 29]: 0.15; optical density measurements at 492 nm [3, 30]: 3.66; optical density measurements at 492 nm [3, 31]: 1.96; optical density measurements at 492 nm [3, 32]: 0.36; optical density measurements at 492 nm [3, 33]: 0.29; optical density measurements at 492 nm [3, 34]: 0.26; optical density measurements at 492 nm [3, 35]: 0.45; optical density measurements at 492 nm [3, 36]: 0.06; optical density measurements at 492 nm [3, 37]: 0.08; optical density measurements at 492 nm [3, 38]: 0.11; optical density measurements at 492 nm [3, 39]: 0.31; optical density measurements at 492 nm [3, 40]: 0.12 |
| CCCCCCCCCCCCCCCCCCCCCC[C@@H](C(=O)OCC1OC(OC2OC(CO)C(O)C(O)C2O)C(O)C(O)C1O)[C@H](O)CCCCCCCCCCCCCCCC[C@H]1C[C@@H]1[C@@H](C)CCCCCCCCCCCCCCCCCCC(=O)O[C@@H](C)CCCCCCCCCCCCCCCCCC (stereo partly shown) [Antigen G] | 4.38 | 4.38 | 3.68 | 2.78 | 4.06 | 0.63 | 1.04 | 0.88 | 2.34 | 1.39 | 0.40 | 0.52 | 1.63 | 1.54 | 0.26 | 0.22 | 0.15 | 0.15 | 0.11 | 0.27 | optical density measurements at 492 nm [2, 23]: 0.11; optical density measurements at 492 nm [2, 24]: 1.54; optical density measurements at 492 nm [3, 25]: 0.37; optical density measurements at 492 nm [3, 26]: 0.14; optical density measurements at 492 nm [3, 27]: 0.24; optical density measurements at 492 nm [3, 28]: 0.51; optical density measurements at 492 nm [3, 29]: 0.27; optical density measurements at 492 nm [3, 30]: 0.82; optical density measurements at 492 nm [3, 31]: 0.55; optical density measurements at 492 nm [3, 32]: 0.46; optical density measurements at 492 nm [3, 33]: 1.58; optical density measurements at 492 nm [3, 34]: 0.16; optical density measurements at 492 nm [3, 35]: 1.99; optical density measurements at 492 nm [3, 36]: 0.06; optical density measurements at 492 nm [3, 37]: 0.10; optical density measurements at 492 nm [3, 38]: 0.07; optical density measurements at 492 nm [3, 39]: 0.07; optical density measurements at 492 nm [3, 40]: 0.07 |
